{"source": "patent US9295253B2", "about": "“Use of abscisic acid on ornamental plants” (Valent BioSciences Corporation, priority 2007, dated 2016)", "key": {"Agapanthus": {"system": "Agapanthus", "assay": "Drought tolerance and side effects after ABA drench, irrigation withheld", "assay_type": "in vivo", "conditions": "drenched with 250 ppm ABA, greenhouse, no irrigation", "description": "(§1) Many different commercial ornamental crops were obtained from local retailers, or from wholesale nurseries, and transported to a greenhouse for testing. Plants were watered to saturation and allowed to stand and drain for about one hour. Plants were selected for uniformity based on leaf area and arranged in a randomized complete block design, or a completely randomized design, on the greenhouse bench. The plants were sprayed or drenched with water or treatment solution equaling about 5-10% of the pot volume. The plants were held without irrigation until all the plants wilted to a point when they were determined to be unmarketable. The plants were rated daily for the extent of wilting on a scale from 1 for no wilting to 4 for complete wilting. A rating of 2.5 was the point at which a plant was determined to be unmarketable and the previous day was recorded as the marketable life of that plant in days. The plants were rated for the extent of lower leaf yellowing or leaf or flower abscission on a scale from 1 for no yellowing or abscission to 4 for complete yellowing or abscission. A rating of 2.5 was the point at which a plant was determined to be unmarketable.\n(§2) Plants were individually rated on a daily basis for degree of wilting and other undesirable characteristics like leaf yellowing."}, "Alyssum": {"system": "Alyssum", "assay": "Drought tolerance and side effects after ABA drench, irrigation withheld", "assay_type": "in vivo", "conditions": "drenched with 250 ppm ABA, greenhouse, no irrigation", "description": "as §1, §2"}, "Calibrachoa": {"system": "Calibrachoa", "assay": "Drought tolerance and side effects after ABA drench, irrigation withheld", "assay_type": "in vivo", "conditions": "drenched with 250 ppm ABA, greenhouse, no irrigation", "description": "as §1, §2"}, "Celosia": {"system": "Celosia", "assay": "Drought tolerance and side effects after ABA drench, irrigation withheld", "assay_type": "in vivo", "conditions": "drenched with 250 ppm ABA, greenhouse, no irrigation", "description": "as §1, §2"}, "Chrysanthemum": {"system": "Chrysanthemum", "assay": "Drought tolerance and side effects after ABA drench, irrigation withheld", "assay_type": "in vivo", "conditions": "drenched with 250 ppm ABA, greenhouse, no irrigation", "description": "as §1, §2"}, "Coleus": {"system": "Coleus", "assay": "Drought tolerance and side effects after ABA drench, irrigation withheld", "assay_type": "in vivo", "conditions": "drenched with 250 ppm ABA, greenhouse, no irrigation", "description": "as §1, §2"}, "Cosmos": {"system": "Cosmos", "assay": "Drought tolerance and side effects after ABA drench, irrigation withheld", "assay_type": "in vivo", "conditions": "drenched with 250 ppm ABA, greenhouse, no irrigation", "description": "as §1, §2"}, "Cuphea": {"system": "Cuphea", "assay": "Drought tolerance and side effects after ABA drench, irrigation withheld", "assay_type": "in vivo", "conditions": "drenched with 250 ppm ABA, greenhouse, no irrigation", "description": "as §1, §2"}, "Dianthus": {"system": "Dianthus", "assay": "Drought tolerance and side effects after ABA drench, irrigation withheld", "assay_type": "in vivo", "conditions": "drenched with 250 ppm ABA, greenhouse, no irrigation", "description": "as §1, §2"}, "Euryops": {"system": "Euryops", "assay": "Drought tolerance and side effects after ABA drench, irrigation withheld", "assay_type": "in vivo", "conditions": "drenched with 250 ppm ABA, greenhouse, no irrigation", "description": "as §1, §2"}, "Gazania": {"system": "Gazania", "assay": "Drought tolerance and side effects after ABA drench, irrigation withheld", "assay_type": "in vivo", "conditions": "drenched with 250 ppm ABA, greenhouse, no irrigation", "description": "as §1, §2"}, "Hydrangea": {"system": "Hydrangea", "assay": "Drought tolerance and side effects after ABA drench, irrigation withheld", "assay_type": "in vivo", "conditions": "drenched with 250 ppm ABA, greenhouse, no irrigation", "description": "as §1, §2"}, "Impatiens": {"system": "Impatiens", "assay": "Drought tolerance and side effects after ABA drench, irrigation withheld", "assay_type": "in vivo", "conditions": "drenched with 250 ppm ABA, greenhouse, no irrigation", "description": "as §1, §2"}, "Lantana": {"system": "Lantana", "assay": "Drought tolerance and side effects after ABA drench, irrigation withheld", "assay_type": "in vivo", "conditions": "drenched with 250 ppm ABA, greenhouse, no irrigation", "description": "as §1, §2"}, "Lobelia": {"system": "Lobelia", "assay": "Drought tolerance and side effects after ABA drench, irrigation withheld", "assay_type": "in vivo", "conditions": "drenched with 250 ppm ABA, greenhouse, no irrigation", "description": "as §1, §2"}, "Marigold": {"system": "Marigold", "assay": "Drought tolerance and side effects after ABA drench, irrigation withheld", "assay_type": "in vivo", "conditions": "drenched with 250 ppm ABA, greenhouse, no irrigation", "description": "as §1, §2"}, "New Guinea Impatiens": {"system": "New Guinea Impatiens", "assay": "Drought tolerance and side effects after ABA drench, irrigation withheld", "assay_type": "in vivo", "description": "as §1, §2"}, "Pansy": {"system": "Pansy", "assay": "Drought tolerance and side effects after ABA drench, irrigation withheld", "assay_type": "in vivo", "description": "as §1, §2"}, "Pentas": {"system": "Pentas", "assay": "Drought tolerance and side effects after ABA drench, irrigation withheld", "assay_type": "in vivo", "conditions": "drenched with 250 ppm ABA, greenhouse, no irrigation", "description": "as §1, §2"}, "Petunia": {"system": "Petunia", "assay": "Drought tolerance and side effects after ABA drench, irrigation withheld", "assay_type": "in vivo", "conditions": "drenched with 250 ppm ABA, greenhouse, no irrigation", "description": "as §1, §2"}, "Poinsettia": {"system": "Poinsettia", "assay": "Drought tolerance and side effects after ABA drench, irrigation withheld", "assay_type": "in vivo", "conditions": "drenched with 250 ppm ABA, greenhouse, no irrigation", "description": "as §1, §2"}, "Rose": {"system": "Rose", "assay": "Drought tolerance and side effects after ABA drench, irrigation withheld", "assay_type": "in vivo", "conditions": "drenched with 250 ppm ABA, greenhouse, no irrigation", "description": "as §1, §2"}, "Salvia": {"system": "Salvia", "assay": "Drought tolerance and side effects after ABA drench, irrigation withheld", "assay_type": "in vivo", "conditions": "drenched with 250 ppm ABA, greenhouse, no irrigation", "description": "as §1, §2"}, "Snapdragon": {"system": "Snapdragon", "assay": "Drought tolerance and side effects after ABA drench, irrigation withheld", "assay_type": "in vivo", "conditions": "drenched with 250 ppm ABA, greenhouse, no irrigation", "description": "as §1, §2"}, "Vinca": {"system": "Vinca", "assay": "Drought tolerance and side effects after ABA drench, irrigation withheld", "assay_type": "in vivo", "description": "as §1, §2"}, "potted Poinsettia plants": {"system": "potted Poinsettia plants", "conditions": "foliar application; cited from earlier work"}, "excised Coleus leaves": {"system": "excised Coleus leaves", "conditions": "applied through the petiole of excised Coleus leaves, compared to excised leaves standing in water; cited from earlier work"}, "[1]": {"conditions": "drenched with 250 ppm ABA, greenhouse, no irrigation"}}}
{"substance": "(S)-5-(1-hydroxy-2,6,6,-trimethyl-4-oxo-2-cyclohexen-1-yl)-3-methyl-(2Z,4E)-pentadienoic acid [ABA]", "values": [{"measurement": "Market life extension (days of additional market life compared to control plants due to delayed wilting)", "setting": "Agapanthus", "result": 0, "unit": "days"}, {"measurement": "Market life extension (days of additional market life compared to control plants due to delayed wilting)", "setting": "Alyssum", "result": 0, "unit": "days"}, {"measurement": "Market life extension (days of additional market life compared to control plants due to delayed wilting)", "setting": "Calibrachoa", "result": 0, "unit": "days"}, {"measurement": "Market life extension (days of additional market life compared to control plants due to delayed wilting)", "setting": "Celosia", "result": 2.3, "unit": "days"}, {"measurement": "Market life extension (days of additional market life compared to control plants due to delayed wilting)", "setting": "Chrysanthemum", "result": 2.0, "unit": "days"}, {"measurement": "Market life extension (days of additional market life compared to control plants due to delayed wilting)", "setting": "Coleus", "result": 2.3, "unit": "days"}, {"measurement": "Market life extension (days of additional market life compared to control plants due to delayed wilting)", "setting": "Cosmos", "result": 1.4, "unit": "days"}, {"measurement": "Market life extension (days of additional market life compared to control plants due to delayed wilting)", "setting": "Cuphea", "result": 2.3, "unit": "days"}, {"measurement": "Market life extension (days of additional market life compared to control plants due to delayed wilting)", "setting": "Dianthus", "result": 1.6, "unit": "days"}, {"measurement": "Market life extension (days of additional market life compared to control plants due to delayed wilting)", "setting": "Euryops", "result": 3.3, "unit": "days"}, {"measurement": "Market life extension (days of additional market life compared to control plants due to delayed wilting)", "setting": "Gazania", "result": 0, "unit": "days"}, {"measurement": "Market life extension (days of additional market life compared to control plants due to delayed wilting)", "setting": "Hydrangea", "result": 3.4, "unit": "days"}, {"measurement": "Market life extension (days of additional market life compared to control plants due to delayed wilting)", "setting": "Impatiens", "result": 2.0, "unit": "days"}, {"measurement": "Market life extension (days of additional market life compared to control plants due to delayed wilting)", "setting": "Lantana", "result": 2.4, "unit": "days"}, {"measurement": "Market life extension (days of additional market life compared to control plants due to delayed wilting)", "setting": "Lobelia", "result": 2.5, "unit": "days"}, {"measurement": "Market life extension (days of additional market life compared to control plants due to delayed wilting)", "setting": "Marigold", "result": 1.9, "unit": "days"}, {"measurement": "Drought tolerance of treated plants (in words)", "setting": "New Guinea Impatiens; ABA application", "result": "much greater drought tolerance"}, {"measurement": "Market life extension (days of additional market life compared to control plants due to delayed wilting)", "setting": "New Guinea Impatiens; [1]", "result": 3.3, "unit": "days"}, {"measurement": "Drought tolerance of treated plants (in words)", "setting": "Pansy; ABA application", "result": "more drought tolerant"}, {"measurement": "Market life extension (days of additional market life compared to control plants due to delayed wilting)", "setting": "Pansy; [1]", "result": 1.6, "unit": "days"}, {"measurement": "Market life extension (days of additional market life compared to control plants due to delayed wilting)", "setting": "Pentas", "result": 2.8, "unit": "days"}, {"measurement": "Market life extension (days of additional market life compared to control plants due to delayed wilting)", "setting": "Petunia", "result": 3.5, "unit": "days"}, {"measurement": "Market life extension (days of additional market life compared to control plants due to delayed wilting)", "setting": "Poinsettia", "result": 2.0, "unit": "days"}, {"measurement": "Market life extension (days of additional market life compared to control plants due to delayed wilting)", "setting": "Rose", "result": 0, "unit": "days"}, {"measurement": "Market life extension (days of additional market life compared to control plants due to delayed wilting)", "setting": "Salvia", "result": 1.9, "unit": "days"}, {"measurement": "Market life extension (days of additional market life compared to control plants due to delayed wilting)", "setting": "Snapdragon", "result": 1.5, "unit": "days"}, {"measurement": "Drought tolerance of treated plants (in words)", "setting": "Vinca; ABA application", "result": "more drought tolerant"}, {"measurement": "Market life extension (days of additional market life compared to control plants due to delayed wilting)", "setting": "Vinca; [1]", "result": 2.5, "unit": "days"}, {"measurement": "Transpiration", "setting": "potted Poinsettia plants", "result": "reduced the transpiration"}, {"measurement": "Transpiration rate", "setting": "excised Coleus leaves", "result": "reduces their transpiration rate"}]}
